This passage reports IC50 results from patent US11352339B2 (MISSION THERAPEUTICS LIMITED, priority 2016, dated 2022).

This test has as its target USP30 (Homo sapiens (Human), UniProt Q70CQ3). Briefly: USP30 Biochemical IC50 Assay. To be noted: fluorescence polarisation, TAMRA labelled peptide linked to ubiquitin; 30 min pre-incubation, read after 2 h; read-out: IC50 range. The method in brief: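 Enzyme preincubated 30 min at room temperature with compound, then 50 nM TAMRA-labelled isopeptide-linked ubiquitin–peptide substrate added. Fluorescence polarisation (ex 540/em 590 nm) read at once and after 2 h at room temperature; duplicate reactions.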

Structures are written as SMILES.

USP30, sequence (Q70CQ3 57-517): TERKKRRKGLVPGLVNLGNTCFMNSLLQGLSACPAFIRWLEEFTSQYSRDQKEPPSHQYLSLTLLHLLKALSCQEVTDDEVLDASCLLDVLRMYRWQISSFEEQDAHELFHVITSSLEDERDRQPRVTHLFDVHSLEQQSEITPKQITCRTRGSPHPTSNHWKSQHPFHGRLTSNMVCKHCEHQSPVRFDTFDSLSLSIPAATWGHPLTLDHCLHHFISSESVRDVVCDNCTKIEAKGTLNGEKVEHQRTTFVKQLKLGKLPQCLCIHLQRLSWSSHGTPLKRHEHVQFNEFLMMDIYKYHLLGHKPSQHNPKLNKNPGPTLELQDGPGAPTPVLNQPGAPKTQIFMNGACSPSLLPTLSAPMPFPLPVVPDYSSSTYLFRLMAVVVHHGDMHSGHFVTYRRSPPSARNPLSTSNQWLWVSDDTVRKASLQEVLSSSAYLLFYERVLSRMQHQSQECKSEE

Turning to `N#CN1CCC(c2[nH]nc(-c3cccc(-c4ccccc4)c3)c2F)C1` (single isomer, unassigned) [Example 17, 3-(3-([1,1′-Biphenyl]-3-yl)-4-fluoro-1H-pyrazol-5-yl)pyrrolidine-1-carbonitrile], the concentration for half-maximal inhibition (IC50) is less than 0.1 µM.

As for `N#Cc1cnn(-c2cccc(-c3nc([C@@H]4CCCN4C#N)no3)c2)c1` [Example 190, (S)-1-(3-(3-(1-Cyanopyrrolidin-2-yl)-1,2,4-oxadiazol-5-yl)phenyl)-1H-pyrazole-4-carbonitrile], the IC50 lay within 0.1 to 1 µM.

Take `N#Cc1ccccc1-c1cccc(-c2nc(C3CCCN3C#N)no2)c1` (stereo not shown) [Example 155, 2-(5-(2′-Cyano-[1,1′-biphenyl]-3-yl)-1,2,4-oxadiazol-3-yl)pyrrolidine-1-carbonitrile]: the IC50 is 0.1 to 1 µM.

Take `CN(C)C(=O)c1cccc(-c2cc(C3CCN(C#N)C3)[nH]n2)c1` (stereo not shown) [Example 8, 3-(5-(1-Cyanopyrrolidin-3-yl)-1H-pyrazol-3-yl)-N,N-dimethylbenzamide]: the half-inhibitory concentration (IC50) was 0.1 to 1 µM.

Take `CNC(=O)c1ccc(-c2cc(C3CCN(C#N)C3)[nH]n2)cn1` (stereo not shown) [Example 3, 5-(5-(1-Cyanopyrrolidin-3-yl)-1H-pyrazol-3-yl)-N-methylpicolinamide]: the half-inhibitory concentration (IC50) lay within 1 to 10 µM.

As to `N#CN1CCC(c2cc(-c3cccc(N4CCCCC4)c3)n[nH]2)C1` (stereo not shown) [Example 12, 3-(3-(3-(Piperidin-1-yl)phenyl)-1H-pyrazol-5-yl)pyrrolidine-1-carbonitrile], the 50% inhibitory concentration (IC50) is 0.1 to 1 µM.

`Cn1cc(-c2ccc(-c3nc(C4CCN(C#N)C4)no3)cc2)cn1` (stereo not shown) [Example 66, 3-(5-(4-(1-Methyl-1H-pyrazol-4-yl)phenyl)-1,2,4-oxadiazol-3-yl)pyrrolidine-1-carbonitrile]: the IC50 is 0.1 to 1 µM.

As to `CS(=O)(=O)c1ccc(-c2cccc(-c3nc(C4CCCN4C#N)no3)c2)cc1` (stereo not shown) [Example 153, 2-(5-(4′-(Methylsulfonyl)-[1,1′-biphenyl]-3-yl)-1,2,4-oxadiazol-3-yl)pyrrolidine-1-carbonitrile], the IC50 was 0.1 to 1 µM.

As for `N#CN1CCC(c2nc3cc(-c4ccncc4)cnc3[nH]2)C1` (stereo not shown) [Example 80, 3-(6-(Pyridin-4-yl)-3H-imidazo[4,5-b]pyridin-2-yl)pyrrolidine-1-carbonitrile], the IC50 is 0.1 to 1 µM.

Take `N#CN1CCC(c2cc(-c3ccc(-c4ccccc4)cc3)[nH]n2)C1` (stereo not shown) [Example 35, 3-(5-([1,1′-Biphenyl]-4-yl)-1H-pyrazol-3-yl)pyrrolidine-1-carbonitrile]: the 50% inhibitory concentration (IC50) fell in the range of 0.1 to 1 µM.

In the case of `COc1ccc(-c2cccc(-c3cc(C4CCN(C#N)C4)[nH]n3)c2)cc1` (stereo not shown) [Example 30, 3-(3-(4′-Methoxy-[1,1′-biphenyl]-3-yl)-1H-pyrazol-5-yl)pyrrolidine-1-carbonitrile], the concentration for half-maximal inhibition (IC50) lay in the range of 0.1 to 1 µM.

Take `N#CN1CCC(c2nc3ccc(-c4ccc(C(=O)NCc5ccccc5)cc4)cc3[nH]2)C1` (stereo not shown) [Example 79, N-Benzyl-4-(2-(1-cyanopyrrolidin-3-yl)-1H-benzo[d]imidazol-6-yl)benzamide]: the IC50 lay within 0.1 to 1 µM.

With `N#Cc1cc(F)cc(-c2ccc3oc([C@@H]4CCCN4C#N)nc3c2)c1` [Example 138, (S)-2-(5-(3-Cyano-5-fluorophenyl)-benzo[d]oxazol-2-yl)pyrrolidine-1-carbonitrile], the concentration for half-maximal inhibition (IC50) is 0.1 to 1 µM.

On to `N#CN1CCCC1c1noc(-c2ccnc(-c3cccc(OC(F)(F)F)c3)c2)n1` (stereo not shown) [Example 168, 2-(5-(2-(3-(Trifluoromethoxy)phenyl)-pyridin-4-yl)-1,2,4-oxadiazol-3-yl)pyrrolidine-1-carbonitrile], for which the IC50 lay within 0.1 to 1 µM.

For `Cn1c([C@@H]2CCCN2C#N)nc2cc(-c3ccccc3)ccc21` [Example 96, (S)-2-(1-Methyl-5-phenyl-1H-benzo[d]imidazol-2-yl)pyrrolidine-1-carbonitrile], the half-inhibitory concentration (IC50) was 10 to 100 µM.

As for `N#CN1CCC(c2[nH]nc(-c3cccc(-c4ccccc4)c3)c2F)C1` (single isomer, unassigned) [Example 16, 3-(3-([1,1′-Biphenyl]-3-yl)-4-fluoro-1H-pyrazol-5-yl)pyrrolidine-1-carbonitrile], the IC50 fell in the range of 0.1 to 1 µM.

Consider `Cn1ncc2cc(-c3cccc(-c4nc(C5CCCN5C#N)no4)c3)ccc21` (stereo not shown) [Example 151], for which the half-inhibitory concentration (IC50) fell in the range of 0.1 to 1 µM.

As for `N#CN1CC[C@@H](c2noc(-c3ccnc(N4CCc5ccccc5C4)c3)n2)C1` [Example 65, (R)-3-(5-(2-(3,4-Dihydroisoquinolin-2(1H)-yl)pyridin-4-yl)-1,2,4-oxadiazol-3-yl)pyrrolidine-1-carbonitrile], the IC50 was in the range of 1 to 10 µM.

On to `N#CN1CCC(c2cc(-c3cccc(-c4ccccc4)c3)no2)C1` (single isomer, unassigned) [Example 118, 3-(3-([1,1′-Biphenyl]-3-yl)isoxazol-5-yl)pyrrolidine-1-carbonitrile], for which the IC50 was less than 0.1 µM.

Turning to `Cc1noc(C)c1-c1cccc(-c2nc(C3CCCN3C#N)no2)c1` (stereo not shown) [Example 147, 2-(5-(3-(3,5-Dimethylisoxazol-4-yl)phenyl)-1,2,4-oxadiazol-3-yl)pyrrolidine-1-carbonitrile], the half-inhibitory concentration (IC50) fell in the range of 1 to 10 µM.

Regarding `N#Cc1cccc(-c2cc(C3CCN(C#N)C3)[nH]n2)c1` (stereo not shown) [Example 1, 3-(3-(3-Cyanophenyl)-1H-pyrazol-5-yl)pyrrolidine-1-carbonitrile], the half-inhibitory concentration (IC50) was in the range of 0.1 to 1 µM.

With `CC1CC(c2cc(-c3cccc(-c4ccccc4)c3)n[nH]2)CN1C#N` (stereo not shown) [Example 27, 4-(3-([1,1′-Biphenyl]-3-yl)-1H-pyrazol-5-yl)-2-methylpyrrolidine-1-carbonitrile], the IC50 fell in the range of 1 to 10 µM.

As for `N#CN1CCC(c2noc(-c3ccc4ncsc4c3)n2)C1` (stereo not shown) [Example 54, 3-(5-(Benzo[d]thiazol-6-yl)-1,2,4-oxadiazol-3-yl)pyrrolidine-1-carbonitrile], the half-inhibitory concentration (IC50) is 0.1 to 1 µM.

For `N#Cc1ccc2ccc(-c3nc([C@@H]4CCCN4C#N)no3)cc2c1` [Example 178, (S)-2-(5-(7-Cyanonaphthalen-2-yl)-1,2,4-oxadiazol-3-yl)pyrrolidine-1-carbonitrile], the half-inhibitory concentration (IC50) fell in the range of 0.1 to 1 µM.

As to `N#CN1CCC(c2nnc(-c3cccc(-c4ccccc4)n3)[nH]2)C1` (stereo not shown) [Example 110, 3-(5-(6-Phenylpyridin-2-yl)-4H-1,2,4-triazol-3-yl)pyrrolidine-1-carbonitrile], the 50% inhibitory concentration (IC50) lay within 0.1 to 1 µM.

Regarding `N#CN1CCCC1c1noc(-c2ccnc(-c3ccccc3)c2)n1` (stereo not shown) [Example 167], the IC50 fell in the range of 0.1 to 1 µM.

Regarding `N#CN1CCC(c2nc3cc(-c4ccncc4)cnc3[nH]2)C1` (single isomer, unassigned) [Example 81, 3-(6-(Pyridin-4-yl)-3H-imidazo[4,5-b]pyridin-2-yl)pyrrolidine-1-carbonitrile], the IC50 lay in the range of 0.1 to 1 µM.

`N#Cc1cc(-c2cc(-c3nc([C@@H]4CCCN4C#N)no3)cnn2)ccn1` [Example 204, (S)-4-(5-(3-(1-Cyanopyrrolidin-2-yl)-1,2,4-oxadiazol-5-yl)pyridazin-3-yl)picolinonitrile]: the concentration for half-maximal inhibition (IC50) fell in the range of 0.1 to 1 µM.

Turning to `N#Cc1cc(-c2cccc(-c3nc([C@@H]4CCCN4C#N)no3)n2)ccn1` [Example 183, (S)-6-(3-(1-Cyanopyrrolidin-2-yl)-1,2,4-oxadiazol-5-yl)-[2,4′-bipyridine]-2 carbonitrile], the IC50 is less than 0.1 µM.

Turning to `COc1ccc(-c2cccc(-c3nc(C4CCCN4C#N)no3)c2)cn1` (stereo not shown) [Example 158, 2-(5-(3-(6-Methoxypyridin-3-yl)phenyl)-1,2,4-oxadiazol-3-yl)pyrrolidine-1-carbonitrile], the IC50 was 1 to 10 µM.

`N#CN1CCC(c2cc(-c3cccc(-c4cccnc4)c3)n[nH]2)C1` (stereo not shown) [Example 26, 3-(3-(3-(Pyridin-3-yl)phenyl)-1H-pyrazol-5-yl)pyrrolidine-1-carbonitrile]: the IC50 lay within 0.1 to 1 µM.

Take `N#CN1CCC(c2cc(-c3cccc(-c4ccccc4)c3)no2)C1` (stereo not shown) [Example 117, 3-(3-([1,1′-Biphenyl]-3-yl)isoxazol-5-yl)pyrrolidine-1-carbonitrile]: the IC50 was less than 0.1 µM.

Consider `N#CN1CCC(c2nc3cc(-c4cn[nH]c4)cnc3[nH]2)C1` (stereo not shown) [Example 88, 3-(6-(1H-Pyrazol-4-yl)-3H-imidazo[4,5-b]pyridin-2-yl)pyrrolidine-1-carbonitrile], for which the half-maximal inhibitory concentration (IC50) is 1 to 10 µM.

As for `N#Cc1cc(F)cc(-c2cccc(-c3nc(C4CCCN4C#N)no3)c2)c1` (stereo not shown) [Example 163, 2-(5-(3′-Cyano-5′-fluoro-[1,1′-biphenyl]-3-yl)-1,2,4-oxadiazol-3-yl)pyrrolidine-1-carbonitrile], the IC50 was less than 0.1 µM.

As to `N#Cc1cc(-c2cncc(-c3nc([C@@H]4CCCN4C#N)no3)n2)ccn1` [Example 203, (S)-4-(6-(3-(1-Cyanopyrrolidin-2-yl)-1,2,4-oxadiazol-5-yl)pyrazin-2-yl)picolinonitrile], the 50% inhibitory concentration (IC50) is less than 0.1 µM.

For the molecule `N#CN1CCCC1c1noc(-c2cccc(-c3ccccc3)n2)n1` (stereo not shown) [Example 142, 2-(5-(6-Phenylpyridin-2-yl)-1,2,4-oxadiazol-3-yl)pyrrolidine-1-carbonitrile], the half-maximal inhibitory concentration (IC50) was in the range of 1 to 10 µM.

With `CNC(=O)c1cccc(-c2cnc3[nH]c(C4CCN(C#N)C4)nc3c2)c1` (stereo not shown) [Example 89, 3-(2-(1-Cyanopyrrolidin-3-yl)-3H-imidazo[4,5-b]pyridin-6-yl)-N-methylbenzamide], the IC50 was 1 to 10 µM.

For `N#Cc1ccc2ccc(-c3nc([C@@H]4CCCN4C#N)no3)cc2n1` (stereo in doubt) [Example 179, 7-(3-(1-Cyanopyrrolidin-2-yl)-1,2,4-oxadiazol-5-yl)quinoline-2-carbonitrile], the IC50 is 1 to 10 µM.

As to `N#CN1CCC(c2noc(-c3ccccc3OCc3ccccc3)n2)C1` (stereo not shown) [Example 59, 3-(5-(2-(Benzyloxy)phenyl)-1,2,4-oxadiazol-3-yl)pyrrolidine-1-carbonitrile], the IC50 was 1 to 10 µM.

With `N#CN1CCC(c2cc(-c3ccnc(-c4cccnc4)c3)n[nH]2)C1` (stereo not shown) [Example 47, 3-(3-([2,3′-Bipyridin]-4-yl)-1H-pyrazol-5-yl)pyrrolidine-1-carbonitrile], the IC50 lay within 0.1 to 1 µM.

The IC50 is the concentration at which inhibition is half-maximal.
